Results taken from patent US20190247361A1, “OXYTOCIN ANTAGONIST DOSING REGIMENS FOR PROMOTING EMBRYO IMPLANTATION AND PREVENTING MISCARRIAGE” (ObsEva S.A., priority 2016, published 2019).

Experiments:
Type in all cases: in vitro ADME
cytochrome P450 = experiment: microsomal stability, pooled liver microsomes, cytochrome P450 alone; settings: 45 minute experiment
Experimental: (§1) At five time points over the course of a 45 minute experiment, the compounds were analyzed by liquid chromatography and tandem mass spectrometry (LC-MS/MS). Intrinsic clearance values (CLint) with standard error (SE CLint) and metabolic half-life (t1/2) were calculated and are indicated in Table 9, below.

[1] = system: cytochrome P450 in combination with UGT; experiment: microsomal stability, pooled liver microsomes, cytochrome P450 in combination with UGT; settings: 45 minute experiment
Experimental: as §1

CYP3A4 = CYP3A4 (Homo sapiens, UniProt P08684); experiment: metabolism by CYP3A4 isoform; settings: for Compound Remaining (% of compound present at t = 0 min): 5 μM
Sequence of CYP3A4 (P08684 whole entry, canonical isoform): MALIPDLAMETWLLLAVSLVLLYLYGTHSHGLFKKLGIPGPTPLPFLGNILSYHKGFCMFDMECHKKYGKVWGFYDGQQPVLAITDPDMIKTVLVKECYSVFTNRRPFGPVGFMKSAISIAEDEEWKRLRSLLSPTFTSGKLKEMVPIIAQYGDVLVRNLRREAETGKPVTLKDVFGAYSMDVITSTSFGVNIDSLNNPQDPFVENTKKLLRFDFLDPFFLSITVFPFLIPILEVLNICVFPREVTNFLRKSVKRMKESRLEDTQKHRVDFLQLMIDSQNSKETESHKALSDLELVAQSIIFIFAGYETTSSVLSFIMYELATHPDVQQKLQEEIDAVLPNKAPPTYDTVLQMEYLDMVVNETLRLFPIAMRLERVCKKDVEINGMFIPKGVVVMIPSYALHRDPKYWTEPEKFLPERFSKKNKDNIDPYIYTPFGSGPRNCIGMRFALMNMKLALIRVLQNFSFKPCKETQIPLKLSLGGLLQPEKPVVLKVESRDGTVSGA
Experimental: (§2) At five time points over the course of a 45 minute experiment, the compounds were analyzed by LC-MS/MS. The percentage of each compound remaining at each time point, along with the metabolic half-lives of each compound in the presence of each cytochrome P450 isoform, are indicated in Tables 10-12, below.

CYP2D6 = CYP2D6 (Homo sapiens, UniProt P10635); experiment: metabolism by CYP2D6 isoform; settings: for Compound Remaining (% of compound present at t = 0 min): 5 μM
Sequence of CYP2D6 (P10635 whole entry, canonical isoform): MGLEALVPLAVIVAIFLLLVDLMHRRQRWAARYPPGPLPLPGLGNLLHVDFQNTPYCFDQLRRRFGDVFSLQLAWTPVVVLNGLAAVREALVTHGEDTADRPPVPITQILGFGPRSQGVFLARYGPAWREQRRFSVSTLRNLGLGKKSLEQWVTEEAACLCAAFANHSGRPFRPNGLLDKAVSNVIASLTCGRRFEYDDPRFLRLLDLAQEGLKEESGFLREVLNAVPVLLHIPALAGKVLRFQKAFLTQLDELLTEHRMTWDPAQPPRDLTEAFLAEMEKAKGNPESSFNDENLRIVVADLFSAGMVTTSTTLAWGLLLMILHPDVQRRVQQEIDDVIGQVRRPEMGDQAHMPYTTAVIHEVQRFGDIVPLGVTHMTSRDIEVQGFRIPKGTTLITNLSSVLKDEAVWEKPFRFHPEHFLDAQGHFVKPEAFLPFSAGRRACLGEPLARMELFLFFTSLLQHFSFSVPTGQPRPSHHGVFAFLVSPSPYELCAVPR
Experimental: as §2

CYP2C19 = CYP2C19 (Homo sapiens, UniProt P33261); experiment: metabolism by CYP2C19 isoform; settings: for Compound Remaining (% of compound present at t = 0 min): 5 μM
Sequence of CYP2C19 (P33261 whole entry, canonical isoform): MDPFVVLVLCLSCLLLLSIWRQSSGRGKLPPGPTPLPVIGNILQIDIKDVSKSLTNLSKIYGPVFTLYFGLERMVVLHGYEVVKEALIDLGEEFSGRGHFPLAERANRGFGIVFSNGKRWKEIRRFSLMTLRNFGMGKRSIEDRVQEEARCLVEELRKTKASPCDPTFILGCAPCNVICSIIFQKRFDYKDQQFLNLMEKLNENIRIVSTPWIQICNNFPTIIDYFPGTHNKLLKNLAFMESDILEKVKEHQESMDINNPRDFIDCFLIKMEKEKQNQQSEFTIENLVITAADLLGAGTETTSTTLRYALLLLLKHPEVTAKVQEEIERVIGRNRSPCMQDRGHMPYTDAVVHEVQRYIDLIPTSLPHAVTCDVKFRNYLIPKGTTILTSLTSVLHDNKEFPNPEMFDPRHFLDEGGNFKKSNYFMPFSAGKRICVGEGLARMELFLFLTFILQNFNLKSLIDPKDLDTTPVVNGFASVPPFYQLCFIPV
Experimental: as §2

microsomal CLint at 3 μM (cytochrome P450; read-out: CLint, Metabolic Stability - CYP): 6.4 µL/min/mg
half-life at 3 μM (cytochrome P450; read-out: t1/2, Metabolic Stability - CYP): 3.6 h
microsomal CLint at 3 μM ([1]; read-out: CLint, Metabolic Stability - CYP/UGT): 5.38 µL/min/mg
half-life at 3 μM ([1]; read-out: t1/2, Metabolic Stability - CYP/UGT): 4.3 h
Compound Remaining (% of compound present at t = 0 min) (CYP3A4; 0 min): 100%
Compound Remaining (% of compound present at t = 0 min) (CYP3A4; 5 min): 107%
Compound Remaining (% of compound present at t = 0 min) (CYP3A4; 15 min): 88.8%
Compound Remaining (% of compound present at t = 0 min) (CYP3A4; 30 min): 92.5%
Compound Remaining (% of compound present at t = 0 min) (CYP3A4; 45 min): 92.2%
half-life at 5 μM (CYP3A4; human): 4.68 h
Compound Remaining (% of compound present at t = 0 min) (CYP2D6; 0 min): 100%
Compound Remaining (% of compound present at t = 0 min) (CYP2D6; 5 min): 49.3%
Compound Remaining (% of compound present at t = 0 min) (CYP2D6; 15 min): 14.1%
Compound Remaining (% of compound present at t = 0 min) (CYP2D6; 30 min): 2.43%
Compound Remaining (% of compound present at t = 0 min) (CYP2D6; 45 min): 0.845%
half-life at 5 μM (CYP2D6; human): 5.62 min
Compound Remaining (% of compound present at t = 0 min) (CYP2C19; 0 min): 100%
Compound Remaining (% of compound present at t = 0 min) (CYP2C19; 5 min): 87.6%
Compound Remaining (% of compound present at t = 0 min) (CYP2C19; 15 min): 82.7%
Compound Remaining (% of compound present at t = 0 min) (CYP2C19; 30 min): 57.1%
Compound Remaining (% of compound present at t = 0 min) (CYP2C19; 45 min): 47.4%
half-life at 5 μM (CYP2C19; human): 0.69 h
SMILES: CO/N=C1\C[C@@H](CO)N(C(=O)c2ccc(-c3ccccc3C)cc2)C1 [(3E) isomer, (3E,5S)-5-(hydroxymethyl)-1-[(2′-methyl-1,1′-biphenyl-4-yl)carbonyl]pyrrolidin-3-one O-methyloxime, reference compound]
